# Source: publication PMC11645656, “MRGPRX4 mediates phospho-drug associated pruritus in a humanized mouse model” (Science translational medicine, 2024)
# Assays:
# MRGPRX4 R95A = biological target: T1, MRGPRX4 R95A (Homo sapiens, UniProt Q96LA9, L83S/R95A); test: Calcium mobilization assay (FLIPR), MRGPRX4 R95A mutant; format: cell-based
# T1 construct: expressed in transfected cells; host or cells: HEK293T, transient
# From the text: Fig. 3. […] (A) Cryo-EM density map of MRGPRX4-Gq in complex with fospropofol. (B) The density map of fospropofol and R82 of MRGPRX4. (C and D) Key molecular interactions between fospropofol and the hydrophilic (C) and hydrophobic (D) part of the agonist binding pocket of MRGPRX4. Amino acid residues interacting with fospropofol are shown as sticks. Hydrogen bond is shown as cyan dashed lines. […] Data are from at least three independent experiments, each performed in triplicate, and reported as the mean ± SEM. (E) and (F) were collected from the same sets of experiments.
# To generate murine Mrgprs expressing cells, HEK293T cells (ATCC) were seeded on poly-D-lysine coated 96 well plate at 25,000 cells per well one day prior to transfection. HEK293T cells were transiently co-transfected with the mammalian expression plasmids carrying cDNA encoding the murine Mrgpr genes and plasmid inserted with cDNA encoding murine α-subunit of the heterotrimeric G15 protein (Gα15) in triplicates using Lipofectamine LTX reagents (Thermo Scientific). To generate WT, S83L, and alanine mutant MRGPRX4-expressing cells, HEK293T cells were seeded on poly-D-lysine coated 384 well plate at 12,000 cells per well one day prior to transfection. […]
# NP2-X4+ DRG neurons = test: GCaMP6s calcium imaging of cultured NP2-X4+ DRG neurons; format: cell-based, mouse; settings: 10 μM phospho-drugs; 1 mM CQ
# From the text: Fig. 2. Phosphate monoester prodrugs induce itch in NP2-MRGPRX4+ mice through activating NP2 primary sensory neurons. (A) Mating strategy to generate NP2-X4+ mice. (B) In situ hybridization showing MRGPRX4 transcripts (magenta) in NP2-X4+ DRG as indicated by arrowheads (left) but not in littermate control NP2-WT (right). NP2 subpopulation accounts for 5% of total DRG neurons. DAPI, blue. Scale bar, 50 μm. […]. Data are expressed as mean ± SEM. *p< 0.05, **p< 0.01 and ***p< 0.001 by two-tailed unpaired Student’s t-test. ns = no statistical significance observed. (D and E) Traces of average (top, depicted as mean ± 95% confidence interval) and individual (bottom, reflected by the heatmap) calcium activity, measured by fluorescence intensity normalized to the baseline intensity (FT/F0) over time of NP2-X4+ (D) and NP2-WT (E) DRG neurons labelled with GCaMP6s (n = 110–150 neurons pooled from 3–7 independent culture vessels from 2–4 mice in each condition). 10 μM phospho-drugs and 1 mM CQ were added as indicated by the arrowheads. Neurons with FT/F0 > 1.5 after compound application were considered a positive responder. NP2-X4+: NP2-MRGPRX4+; DRG, dorsal root ganglia; CQ: chloroquine.
# The procedures were performed following previously established protocols ([15]). Murine DRGs (from both male and female) were harvested from all spinal segments and digested in dispase (5 mg/ml) / type I collagenase (1 mg/ml) enzyme mix at 37 °C for an hour. Enzyme mix was replaced with complete DH10 media (90% DMEM/F12, 10% FBS, penicillin (100 units/ml), and streptomycin (100 μg/ml)) and gently triturated with 1 ml pipette tip until the media turned cloudy without visible tissue chunks. Dissociated tissues were filtered through a 70 μm filter and spun down 1250 rpm for 5 min at RT. Supernatant was removed and the cell pellet was resuspended in complete DH10 media. Cell suspension was then added on top of poly-D-lysine- and laminin-coated coverslips and sat for 1–2 h at 37°C. Complete DH10 media supplemented with NGF (50 ng/ml) was then added into the vessel. Neurons were allowed to recover overnight at 37°C for the next-day calcium imaging experiment.
# Calcium imaging data was collected with a Nikon Eclipse TE 200 microscope. Time series GCaMP6 fluorescence intensity was acquired through the FITC/GFP channel. Before the imaging, cultured neurons were washed and equilibrated in CIB for 30 min at 37°C. In each trial, compounds (as indicated in the results) were added into the imaging chamber after a 30 s baseline GCaMP6 activity was collected. […] Neurons with GCaMP6 signal rose above 50% of the baseline intensity after compound application were counted as positive responders and the percentage of responding neurons was calculated. […]
# T1 sequence (Q96LA9 whole entry L83S/R95A): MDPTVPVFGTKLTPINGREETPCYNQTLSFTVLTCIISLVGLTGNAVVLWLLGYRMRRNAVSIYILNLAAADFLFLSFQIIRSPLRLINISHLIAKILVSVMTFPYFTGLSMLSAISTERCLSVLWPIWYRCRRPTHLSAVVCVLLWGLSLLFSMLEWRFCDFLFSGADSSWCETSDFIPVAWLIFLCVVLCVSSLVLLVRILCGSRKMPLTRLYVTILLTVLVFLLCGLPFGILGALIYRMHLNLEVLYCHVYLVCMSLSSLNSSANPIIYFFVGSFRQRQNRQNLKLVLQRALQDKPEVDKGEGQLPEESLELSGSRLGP
smiles,measurement,setting,value
O=C1NC(c2ccccc2)(c2ccccc2)C(=O)N1COP(=O)(O)O [Fosphenytoin],Calcium mobilization response at alanine mutant R95A vs WT,MRGPRX4 R95A,either greatly attenuated or abolished
same,Calcium response of NP2-X4+ neurons,NP2-X4+ DRG neurons,strong calcium transients
CC(C)c1cccc(C(C)C)c1OCOP(=O)(O)O [Fospropofol],Calcium mobilization response at alanine mutant R95A vs WT,MRGPRX4 R95A,either greatly attenuated or abolished
same,Calcium response of NP2-X4+ neurons,NP2-X4+ DRG neurons,strong calcium transients
